Test results from patent US20010014671A1, “Treatment of osteoarthritis by administering poly-N-acetyl-D-glucosamine” (Lescarden, Inc., priority 1996, published 2001).
Each block holds one compound with its values, some of them ahead of it.

How the values were obtained:
[1] = human trials, cited from earlier work
[2] = cited from earlier work
[3] = Serum NAG and glucosamine levels after oral ingestion of NAG or poly-NAG in healthy subjects (crossover, HPLC analysis); type: in vivo, human
Source text: Ten normal, healthy subjects (five men and five women ages 36-50) were randomly divided into two groups (designated as A and B). On Day-1 a fasting blood sample was collected from each patient. Following this, group A orally ingested 1.0 gram of NAG and group B ingested 1.0 gram of poly-NAG. On Day-2 the subjects again ingested one gram of the appropriate test substance before breakfast. On the third day a fasting blood sample was taken at time T=0. Subsequently, they consumed the final 1.0 gram of the appropriate test substance, and nonfasting blood samples were taken at 1, 2, 4, and 8 hours. Fasting blood samples were taken at 24 and 48 hours thereafter. […] On Day-8, after a fasting blood sampling, the groups were switched (i.e., group A took poly-NAG while group B consumed NAG) and the same procedure as shown above was repeated.
The data were analyzed using analytical HPLC procedure based on published methods for amino sugar analysis. The chromatographic system consisted of a Hewlett-Packard 1090M Liquid Chromatograph/Work Station equipped with a Diode Array Detector. Separation was by isocratic elution at 40° C. from a 300×7.8 mm Rezex Organic Acid Column (Phenomenex; N>75000 P/m) with 0.005N H2SO4 at a flow rate of 0.6 ml/min. The analytical conditions had been developed for resolution of the aminosugar/acetylated aminosugar components of physiological fluids, and the diode array detector was optimized at 193 nm for maximum sensitivity and minimum interference. The system was calibrated with standards before, during and after the study to assure there were no significant changes due to wear and tear or aging of the system. The chromatographic data were transferred to a spreadsheet and statistically tested with ANOVA (Single Factor, Two-Factor without Replication, Two-Factor with Replication) and paired T-tests.

SMILES: N[C@H]1C(O)O[C@H](CO)[C@@H](O)[C@@H]1O.O=S(=O)(O)O (stereo partly shown) [glucosamine sulfate]
effect on symptoms of osteoarthritis ([1]; pain, joint tenderness, swelling and mobility): significant improvement in the symptoms of pain, joint tenderness, swelling and mobility | adverse side effects or undesirable drug interactions [1]: not to have any adverse side effects or undesirable interactions with other drugs

SMILES: N[C@H]1C(O)O[C@H](CO)[C@@H](O)[C@@H]1O (stereo partly shown) [glucosamine]
excreted in the feces ([2]; dog, in vivo): 1.7% | time of peak protein incorporation of glucosamine ([2]; incorporation into alpha and beta globulins): 8 h | excreted in urine ([2]; mainly as glucosamine): 34%

subjects showing decreased serum NAG levels ([3]; 24 hours following cessation of ingestion, both groups together (4/20)): 20% | concentration of NAG in serum, Avg ([3]; Pre (pretest fasting sample before ingestion), 1.0 g per day oral): 10.3 nanomoles per ml of serum | subjects with increased serum NAG concentrations ([3]; T=0 compared with pretest values, fraction of 20 subject-periods): 6/20 | subjects showing an increase in serum NAG ([3]; T=1 hour compared with pretest value, fraction of 20 subject-periods): 8/20 | concentration at 0 h ([3]; both sexes, human, serum, T0, third day fasting, before final 1.0 g oral dose): 15.4 µM | concentration at 1 h ([3]; both sexes, human, serum, T1, 1 hour after final 1.0 g oral dose, nonfasting): 18.2 µM | concentration at 2 h ([3]; both sexes, human, serum, T2, 2 hours after final 1.0 g oral dose, nonfasting): 21 µM | concentration at 4 h ([3]; both sexes, human, serum, T4, 4 hours after final 1.0 g oral dose, nonfasting): 22.9 µM | concentration at 8 h ([3]; both sexes, human, serum, T8, 8 hours after final 1.0 g oral dose, nonfasting): 14.6 µM | concentration at 24 h ([3]; both sexes, human, serum, T24, 24 hours after final 1.0 g oral dose, fasting): 13.6 µM | concentration at 48 h ([3]; both sexes, human, serum, T48, 48 hours after final 1.0 g oral dose, fasting): 12.7 µM
SMILES: CC(=O)N[C@H]1C(O)O[C@H](CO)[C@@H](O)[C@@H]1O (stereo partly drawn) [NAG, N-acetyl-D-glucosamine]
